ChEMBL document CHEMBL1201862, “PubChem BioAssay data set” (2004)
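Step 1: Grow cells in 96-well plates. Step 2: Expose to compound for 48 hours at 5 concentrations. Step 3: Interpolate endpoints linearly; if unreached, use highest concentration. GI50 is the concentration that inhibits growth by half.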 Calls of active or inactive are those of the source. Rule as the data show it: active = GI50 up to about 1.1 µM and inactive = higher.

Columns and labels:
Assay in all cases: NCI anticancer screen, dose series, 48 h
UACC-62 = test system: UACC-62
HCT-116 = test system: HCT-116
MDA-MB-231 = test system: MDA-MB-231
COLO 205 = test system: COLO 205
ACHN = test system: ACHN
SW-620 = test system: SW-620
EKVX = test system: EKVX
NCI-H23 = test system: NCI-H23
RPMI-8226 = test system: RPMI-8226
MCF7 = test system: MCF7
SK-MEL-5 = test system: SK-MEL-5
SK-MEL-2 = test system: SK-MEL-2
PC-3 = test system: PC-3
SF-268 = test system: SF-268
HCT-15 = test system: HCT-15
SN12C = test system: SN12C
T47D = test system: T47D
MOLT-4 = test system: MOLT-4
SK-MEL-28 = test system: SK-MEL-28
SF-539 = test system: SF-539

Structure (SMILES) | GI50 (UACC-62) | GI50 (HCT-116) | GI50 (MDA-MB-231) | GI50 (COLO 205) | GI50 (ACHN) | GI50 (SW-620) | GI50 (EKVX) | GI50 (NCI-H23) | GI50 (RPMI-8226) | GI50 (MCF7) | GI50 (SK-MEL-5) | GI50 (SK-MEL-2) | GI50 (PC-3) | GI50 (SF-268) | GI50 (HCT-15) [µM] | GI50 (SN12C) | GI50 (T47D) | GI50 (MOLT-4) | GI50 (SK-MEL-28) | GI50 (SF-539)
c1ccc(NCCSc2nc3ccccc3s2)cc1 | 66.5 µM (inactive) | 37.3 µM (inactive) | 29.4 µM (inactive) | 22.4 µM (inactive) | 43.8 µM (inactive) | 58.3 µM (inactive) | 29.5 µM (inactive) | 29 µM (inactive) | 26.5 µM (inactive) | 25.8 µM (inactive) | 21.5 µM (inactive) | 30.8 µM (inactive) | 55.2 µM (inactive) | > 100 µM (inactive) | 18 | 46.1 µM (inactive) | 36.2 µM (inactive) | 24.9 µM (inactive) | > 100 µM (inactive) | 
CC(=O)c1cccc(Nc2nc3ccc(Cl)cc3c3[nH]c4ccccc4c23)c1 | 2.19 µM (inactive) | 3.85 µM (inactive) | 11.6 µM (inactive) | 2.07 µM (inactive) | 4.11 µM (inactive) | 4.35 µM (inactive) | 3.54 µM (inactive) | 12.8 µM (inactive) | 6.95 µM (inactive) | 0.434 µM (active) | 1.44 µM (inactive) | 3.36 µM (inactive) | 5.86 µM (inactive) | 3.99 µM (inactive) | 6.08 | 13.1 µM (inactive) | 6.52 µM (inactive) |  |  | 5.28 µM (inactive)
COc1ccc(Cn2c3c(cc(OC(C)=O)c2=O)Cc2ccccc2-3)cc1 | 9.1 µM (inactive) | 6.52 µM (inactive) | 13.2 µM (inactive) | 20.6 µM (inactive) | 7.91 µM (inactive) | 6.64 µM (inactive) | 7.76 µM (inactive) | 10.5 µM (inactive) |  | 13.7 µM (inactive) | 12.2 µM (inactive) | 4.61 µM (inactive) | 8.41 µM (inactive) | 7.82 µM (inactive) | 2.55 | 7.55 µM (inactive) | 14.6 µM (inactive) | 2.88 µM (inactive) | 22.1 µM (inactive) | 8.02 µM (inactive)
O=C(CCNC(=O)OCc1ccccc1)OCCCNC(=O)OCc1ccccc1 | > 100 µM (inactive) | > 100 µM (inactive) | > 100 µM (inactive) | > 100 µM (inactive) | > 100 µM (inactive) | > 100 µM (inactive) |  | > 100 µM (inactive) | > 100 µM (inactive) | > 100 µM (inactive) | > 100 µM (inactive) |  | > 100 µM (inactive) | > 100 µM (inactive) | > 100 | > 100 µM (inactive) | > 100 µM (inactive) | > 100 µM (inactive) | > 100 µM (inactive) | > 100 µM (inactive)
COC1/C=C/C(C)C(C(C)C(OC)C(C)CCC(=O)C(C)C(CC(=O)O)OC)OC(=O)/C=C/C=C(\C)CC(OC)CC2=CC(=O)O[C@H](C2)C(C)C(OC)CC(OC)/C=C/C(C)C(OC)C1 (stereo partly specified) | 0.315 µM (active) |  | 0.45 µM (active) | 0.0977 µM (active) | 0.562 µM (active) | 0.348 µM (active) | 0.396 µM (active) | 0.879 µM (active) | 0.219 µM (active) | 0.439 µM (active) | 0.455 µM (active) | 0.265 µM (active) | 0.38 µM (active) | 0.0548 µM (active) | 0.885 | 2.96 µM (inactive) | 1.16 µM (inactive) | 1.46 µM (inactive) | 0.101 µM (active) | 
CN(C(=O)Cc1cccc(N=C=S)c1)[C@H]1CCCC[C@@H]1N1CCCC1 | 15.7 µM (inactive) | 13 µM (inactive) | 16.9 µM (inactive) | 11.8 µM (inactive) | 14.1 µM (inactive) | 11.6 µM (inactive) | 18.1 µM (inactive) | 14.2 µM (inactive) | 10.9 µM (inactive) | 13 µM (inactive) | 5.73 µM (inactive) | 18.7 µM (inactive) | 15.2 µM (inactive) | 20 µM (inactive) | 14.5 | 15.2 µM (inactive) | 11.4 µM (inactive) | 5.24 µM (inactive) | 16.1 µM (inactive) | 
CC(=O)OCC1OC(N2C(c3ccccc3)=CC(c3ccccc3)C(C#N)=C2S)C(OC(C)=O)C(OC(C)=O)C1OC(C)=O (stereo unspecified) | 0.583 µM (active) | 5.92 µM (inactive) | 3.7 µM (inactive) | 1.89 µM (inactive) | 5.58 µM (inactive) | 54.7 µM (inactive) |  | 7.41 µM (inactive) | 13.3 µM (inactive) | 19.4 µM (inactive) | 1.64 µM (inactive) | 2.27 µM (inactive) | 2.77 µM (inactive) | 5.33 µM (inactive) | 48.5 | 3.56 µM (inactive) | 3.99 µM (inactive) | 48.6 µM (inactive) | 8.95 µM (inactive) | 2.56 µM (inactive)
S=C(N1CCN(c2cccc(Cl)c2)CC1)N1CCN(c2cccc(Cl)c2)CC1 | 83 µM (inactive) | 21.2 µM (inactive) | 11 µM (inactive) | 22 µM (inactive) | 50.8 µM (inactive) | > 100 µM (inactive) | 35 µM (inactive) | > 100 µM (inactive) | 34.6 µM (inactive) | 37.1 µM (inactive) | 34.2 µM (inactive) | > 100 µM (inactive) | 32.7 µM (inactive) | 39.9 µM (inactive) | 57.3 |  | 16.9 µM (inactive) | 16 µM (inactive) | 42.9 µM (inactive) | 
C/C=C\C(CC(=O)NCC(=O)c1c[nH]c2ccccc12)CC(=O)OC (stereo unspecified) | > 100 µM (inactive) | > 100 µM (inactive) | > 100 µM (inactive) | > 100 µM (inactive) | > 100 µM (inactive) | > 100 µM (inactive) | > 100 µM (inactive) | > 100 µM (inactive) | > 100 µM (inactive) | > 100 µM (inactive) | > 100 µM (inactive) | > 100 µM (inactive) | > 100 µM (inactive) | > 100 µM (inactive) | > 100 |  | > 100 µM (inactive) | > 100 µM (inactive) | > 100 µM (inactive) | 
CC(=O)Oc1ccc2c3c1[C@H]1O[C@H]1c1cccc(c1-3)[C@@H]1O[C@H]21 | 8 µM (inactive) | 11.2 µM (inactive) | 12.8 µM (inactive) | 10.4 µM (inactive) | 18.3 µM (inactive) | 2.09 µM (inactive) | 16.5 µM (inactive) | 4.92 µM (inactive) | 3.22 µM (inactive) | 18.4 µM (inactive) | 4.25 µM (inactive) | 9.55 µM (inactive) | 13.5 µM (inactive) | 5.62 µM (inactive) | 5 | 2.69 µM (inactive) | 2.09 µM (inactive) | 18.5 µM (inactive) | 8.15 µM (inactive) | 
C=CC(C)(C)C(=C)C(=O)Nc1ccccc1I | > 100 µM (inactive) | 81.8 µM (inactive) | > 100 µM (inactive) | > 100 µM (inactive) | > 100 µM (inactive) | > 100 µM (inactive) | 83.9 µM (inactive) | > 100 µM (inactive) | 98.4 µM (inactive) | > 100 µM (inactive) | > 100 µM (inactive) | > 100 µM (inactive) | > 100 µM (inactive) | > 100 µM (inactive) | > 100 | > 100 µM (inactive) | > 100 µM (inactive) |  | > 100 µM (inactive) | 
COC(=O)Cc1c(/C=C/C(C)(C)n2cnc(CCN3C(=O)CCC3=O)c2)[nH]c2ccccc12 | 14.2 µM (inactive) | > 100 µM (inactive) | > 100 µM (inactive) | > 100 µM (inactive) | 95.5 µM (inactive) | > 100 µM (inactive) | 13.7 µM (inactive) | > 100 µM (inactive) |  | 47.2 µM (inactive) | 66.8 µM (inactive) | > 100 µM (inactive) | > 100 µM (inactive) | 59.6 µM (inactive) | > 100 | > 100 µM (inactive) | 22.3 µM (inactive) | 57.3 µM (inactive) | > 100 µM (inactive) | > 100 µM (inactive)
COC(=O)C1=Nc2c(C)nn(-c3ccccc3)c2N=C(c2ccccc2)C1 | > 10 µM (inactive) | > 10 µM (inactive) | > 10 µM (inactive) | > 10 µM (inactive) | > 10 µM (inactive) | > 10 µM (inactive) |  | > 10 µM (inactive) | > 10 µM (inactive) | > 10 µM (inactive) | > 10 µM (inactive) |  | > 10 µM (inactive) | > 10 µM (inactive) | > 10 | > 10 µM (inactive) | > 10 µM (inactive) | > 10 µM (inactive) | > 10 µM (inactive) | > 10 µM (inactive)
COc1ccc(/C(Cl)=C(\C#N)c2ccc(OC)c(OC)c2)cc1OC | 42.3 µM (inactive) | 60.1 µM (inactive) | 35.6 µM (inactive) | 44.5 µM (inactive) | 93.8 µM (inactive) | > 100 µM (inactive) | 21.3 µM (inactive) | 80.2 µM (inactive) | 15 µM (inactive) | 59 µM (inactive) | 46.8 µM (inactive) | 96.2 µM (inactive) | 79.1 µM (inactive) |  | 44.3 | > 100 µM (inactive) | 34.4 µM (inactive) | 78.9 µM (inactive) |  | > 100 µM (inactive)
N=C(N)SCCSC(=N)N | > 100 µM (inactive) | > 100 µM (inactive) | > 100 µM (inactive) | > 100 µM (inactive) | > 100 µM (inactive) | > 100 µM (inactive) | 47 µM (inactive) | > 100 µM (inactive) | > 100 µM (inactive) | > 100 µM (inactive) | > 100 µM (inactive) |  | > 100 µM (inactive) | > 100 µM (inactive) | > 100 | > 100 µM (inactive) | > 100 µM (inactive) | > 100 µM (inactive) | > 100 µM (inactive) | 
